{"source": "patent US9511136B2", "about": "“Immunogenic compounds comprising HIV GP41 peptide coupled to CRM197 carrier protein” ([…], priority 2012, dated 2016)", "test_system": "NKp44L at the surface of activated human CD4+ T cells", "assay": "Inhibition by antiserums of 3S16Nter-induced NKp44L expression at the surface of activated human CD4+ T cells (cytofluorometry)", "format": "cell-based", "source_text": "The aim of Example 5 was to test the ability of the antiserums of a rat vaccinated with the adjuvanted 3S drug substance to inhibit the expression of NKp44L at the surface of activated human CD4+ T cells induced by the 3S peptide, namely the 3S16Nter peptide.\nCD4+ T cells were sorted from human PBMC and activated for 3 days with PHA (Thermo Fisher Scientific, Waltham, USA) then expanded for three days with recombinant IL-2 (Novartis, Horsham, United Kingdom). The cells were put in presence of 3S16Nter peptides (Covalab, Villeurbanne, France) in order to induce the expression of NKp44L at their surface.\nThe expression of NKp44L at the surface of the cells was measured using the intensity of a specific fluorescent staining measured by cytofluorometry.\nThe inhibition of NKp44L expression by the antiserums of vaccinated rat was studied.\nThe antisera were tested at different dilutions in triplicate.\nHuman CD4+ T cells were obtained by magnetic separation from a leuko-platelet residue pouch ordered from the EFS (“Etablissement Francais du Sang”).\nThe human CD4+ T cells were sorted from the pouch according to the following protocol: • 1. The pouch is distributed in four Falcon tubes of 50 mL: 4×15 mL • 2. Complete to 50 mL with RPMI1640+glutamax medium (ref 72400-054, GIBCO, Life Technologies, Carlsbad, USA) • 3. […]", "note": "Where “and” joins values, the source holds several entries; their conditions need not be identical. Identical values can stand only once."}
{"substance": "H-CPWNASWSNKSLDDIW-OH [3S16Nter]", "values": [{"measurement": "PE X-mean fluorescence", "setting": "no serum, with 3S16Nter peptides (5 μg/mL), single wells", "result": "59.6 and 64.7"}, {"measurement": "NKp44L expression on activated CD4+ T cells (mean level)", "setting": "without serum, in the presence of 3S16Nter peptides", "result": 62}]}
